Common to all, as to type: biochemical
One test addresses MSSK1 (Homo sapiens, UniProt Q9UPE1). The experiment in a line: Kinome profiling MSSK1. The following applies: read-out: Inhibitory activity MSSK1; for inhibition at 0.1 µM: 100 nM. The procedure:
(§1) . The kinome-wide selectivity was determined following the methods previously reported by Mohedas et al., ACS Chem Biol 2013, 8, 1291-1302 and Sanvitale et al., PLoS One 2013, 8, e62721.

The target of another test is T1, HIPK4 (Homo sapiens, UniProt Q8NE63).
T1 sequence (Q8NE63 1-616): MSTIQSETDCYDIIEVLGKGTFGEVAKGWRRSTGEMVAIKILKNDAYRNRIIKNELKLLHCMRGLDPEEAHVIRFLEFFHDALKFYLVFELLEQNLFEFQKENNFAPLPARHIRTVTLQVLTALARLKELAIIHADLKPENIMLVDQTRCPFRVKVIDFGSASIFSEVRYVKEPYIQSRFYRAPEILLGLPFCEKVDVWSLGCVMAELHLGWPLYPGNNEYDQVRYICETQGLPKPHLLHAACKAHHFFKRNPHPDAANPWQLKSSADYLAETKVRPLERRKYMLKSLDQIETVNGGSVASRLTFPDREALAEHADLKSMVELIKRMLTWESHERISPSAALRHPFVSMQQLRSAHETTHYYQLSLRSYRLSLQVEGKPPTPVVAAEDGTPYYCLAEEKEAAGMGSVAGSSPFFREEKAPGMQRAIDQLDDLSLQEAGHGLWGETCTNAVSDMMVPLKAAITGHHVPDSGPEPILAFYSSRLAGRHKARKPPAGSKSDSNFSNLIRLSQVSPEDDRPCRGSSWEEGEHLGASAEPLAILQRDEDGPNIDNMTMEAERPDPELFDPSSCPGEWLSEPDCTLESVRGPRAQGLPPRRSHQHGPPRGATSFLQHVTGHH
Briefly: Kinome profiling HIPK4. The following applies: read-out: Inhibitory activity HIPK4; for inhibition at 0.1 µM: 100 nM. The procedure:
as §1

In another test the target is ROCK1 (Homo sapiens, UniProt Q13464). Briefly: Kinome profiling ROCK1. As to conditions: read-out: Inhibitory activity ROCK1; for inhibition at 0.1 µM: 100 nM. How it is done:
as §1

Another test has as its target T2, PDK1 (Homo sapiens, UniProt O15530).
T2 sequence (O15530 1-556): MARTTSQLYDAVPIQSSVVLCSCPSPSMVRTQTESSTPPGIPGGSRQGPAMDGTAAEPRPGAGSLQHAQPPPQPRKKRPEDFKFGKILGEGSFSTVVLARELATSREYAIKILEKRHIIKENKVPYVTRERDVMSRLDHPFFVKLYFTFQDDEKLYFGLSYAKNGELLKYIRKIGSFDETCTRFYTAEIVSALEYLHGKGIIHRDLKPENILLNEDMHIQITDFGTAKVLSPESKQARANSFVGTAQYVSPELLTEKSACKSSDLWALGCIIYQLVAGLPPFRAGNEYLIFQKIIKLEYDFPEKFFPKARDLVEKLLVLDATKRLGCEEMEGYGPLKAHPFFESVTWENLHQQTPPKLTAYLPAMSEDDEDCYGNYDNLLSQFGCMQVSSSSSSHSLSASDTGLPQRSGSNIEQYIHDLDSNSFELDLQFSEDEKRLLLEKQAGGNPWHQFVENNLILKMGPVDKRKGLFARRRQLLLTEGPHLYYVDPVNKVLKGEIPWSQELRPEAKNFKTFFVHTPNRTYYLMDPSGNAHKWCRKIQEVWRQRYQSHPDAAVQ
Briefly: Kinome profiling PDK1. As to conditions: read-out: Inhibitory activity PDK1; for inhibition at 0.1 µM: 100 nM. The procedure:
as §1

In another test the target is T3, MST1 (Homo sapiens, UniProt Q13043).
T3 sequence (Q13043 1-487): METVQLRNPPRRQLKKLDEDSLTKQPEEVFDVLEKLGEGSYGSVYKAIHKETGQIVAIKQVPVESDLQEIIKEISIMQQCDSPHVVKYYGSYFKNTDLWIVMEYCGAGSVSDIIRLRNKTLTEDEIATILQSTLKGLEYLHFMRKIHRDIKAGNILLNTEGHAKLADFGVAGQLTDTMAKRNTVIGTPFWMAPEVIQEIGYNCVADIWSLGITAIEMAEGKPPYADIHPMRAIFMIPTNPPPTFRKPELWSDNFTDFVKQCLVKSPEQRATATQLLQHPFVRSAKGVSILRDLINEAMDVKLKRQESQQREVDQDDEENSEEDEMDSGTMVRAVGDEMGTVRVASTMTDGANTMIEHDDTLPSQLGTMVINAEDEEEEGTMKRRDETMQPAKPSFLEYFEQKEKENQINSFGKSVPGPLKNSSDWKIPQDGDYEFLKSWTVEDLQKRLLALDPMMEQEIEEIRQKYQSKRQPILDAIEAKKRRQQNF
The experiment in a line: Kinome profiling MST1. As to conditions: read-out: Inhibitory activity MST1; for inhibition at 0.1 µM: 100 nM. How it is done: as §1

A further test has as its target PASK (Homo sapiens, UniProt Q96RG2). The experiment in a line: Kinome profiling PASK. As to conditions: read-out: Inhibitory activity PASK; for inhibition at 0.1 µM: 100 nM. The procedure:
as §1

The target in the next test is MET (Homo sapiens, UniProt P08581). The experiment in a line: Kinome profiling MET. The following applies: read-out: Inhibitory activity MET; for inhibition at 0.1 µM: 100 nM. The procedure:
as §1

Another test addresses MNK2 (Homo sapiens, UniProt Q9HBH9). The experiment in a line: Kinome profiling MNK2. The following applies: read-out: Inhibitory activity MNK2; for inhibition at 0.1 µM: 100 nM. How it is done:
as §1

The target in the next test is CAMK1δ (Homo sapiens, UniProt Q8IU85). The experiment in a line: Kinome profiling CAMK1δ. The following applies: read-out: Inhibitory activity CAMK1δ; for inhibition at 0.1 µM: 100 nM. How it is done: as §1
Sequence of CAMK1δ (Q8IU85 whole entry): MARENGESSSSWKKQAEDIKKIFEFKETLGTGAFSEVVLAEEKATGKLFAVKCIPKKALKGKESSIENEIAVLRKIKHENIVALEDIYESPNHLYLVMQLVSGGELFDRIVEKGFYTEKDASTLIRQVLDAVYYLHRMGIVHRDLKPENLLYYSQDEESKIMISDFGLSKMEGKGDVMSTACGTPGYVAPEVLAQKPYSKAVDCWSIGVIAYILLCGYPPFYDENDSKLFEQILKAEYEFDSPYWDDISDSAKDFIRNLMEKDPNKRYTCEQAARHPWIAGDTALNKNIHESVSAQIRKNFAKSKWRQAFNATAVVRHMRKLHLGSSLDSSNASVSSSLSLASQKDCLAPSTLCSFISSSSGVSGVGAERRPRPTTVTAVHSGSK

Sequence of PASK (Q96RG2 whole entry): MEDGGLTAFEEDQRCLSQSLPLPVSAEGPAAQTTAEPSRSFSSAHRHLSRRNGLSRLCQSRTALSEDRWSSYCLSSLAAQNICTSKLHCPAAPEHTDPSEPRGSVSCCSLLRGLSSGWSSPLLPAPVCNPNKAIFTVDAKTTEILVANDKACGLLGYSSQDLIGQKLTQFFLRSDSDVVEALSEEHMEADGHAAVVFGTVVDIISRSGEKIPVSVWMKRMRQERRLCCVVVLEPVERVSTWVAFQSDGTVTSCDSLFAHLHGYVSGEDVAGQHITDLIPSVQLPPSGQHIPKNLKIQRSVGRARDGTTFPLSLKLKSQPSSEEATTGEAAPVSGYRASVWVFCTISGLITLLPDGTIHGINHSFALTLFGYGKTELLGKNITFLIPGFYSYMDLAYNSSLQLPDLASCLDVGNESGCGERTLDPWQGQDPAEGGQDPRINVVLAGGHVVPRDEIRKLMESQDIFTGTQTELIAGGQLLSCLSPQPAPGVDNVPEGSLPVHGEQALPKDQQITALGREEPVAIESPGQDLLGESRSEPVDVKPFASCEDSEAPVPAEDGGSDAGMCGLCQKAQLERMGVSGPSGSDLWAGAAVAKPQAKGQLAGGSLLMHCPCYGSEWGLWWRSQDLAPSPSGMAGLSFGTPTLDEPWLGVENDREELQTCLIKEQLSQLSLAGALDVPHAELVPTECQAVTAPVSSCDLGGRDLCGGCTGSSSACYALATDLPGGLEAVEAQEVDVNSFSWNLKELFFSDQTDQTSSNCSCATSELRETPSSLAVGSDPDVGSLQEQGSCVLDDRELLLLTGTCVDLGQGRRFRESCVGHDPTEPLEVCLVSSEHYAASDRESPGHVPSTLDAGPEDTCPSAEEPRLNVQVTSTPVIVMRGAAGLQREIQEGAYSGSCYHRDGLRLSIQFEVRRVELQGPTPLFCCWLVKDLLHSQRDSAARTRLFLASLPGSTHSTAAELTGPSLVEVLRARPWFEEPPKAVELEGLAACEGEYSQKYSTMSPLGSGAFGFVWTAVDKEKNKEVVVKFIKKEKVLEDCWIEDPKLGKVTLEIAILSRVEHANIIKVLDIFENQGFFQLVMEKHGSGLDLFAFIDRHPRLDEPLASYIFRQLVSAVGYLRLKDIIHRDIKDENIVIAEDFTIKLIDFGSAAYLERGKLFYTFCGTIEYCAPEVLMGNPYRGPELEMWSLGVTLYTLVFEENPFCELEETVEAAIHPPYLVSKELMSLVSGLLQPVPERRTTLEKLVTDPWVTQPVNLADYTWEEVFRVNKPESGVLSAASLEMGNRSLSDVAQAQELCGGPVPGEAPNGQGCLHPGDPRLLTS
Sequence of MNK2 (Q9HBH9 whole entry): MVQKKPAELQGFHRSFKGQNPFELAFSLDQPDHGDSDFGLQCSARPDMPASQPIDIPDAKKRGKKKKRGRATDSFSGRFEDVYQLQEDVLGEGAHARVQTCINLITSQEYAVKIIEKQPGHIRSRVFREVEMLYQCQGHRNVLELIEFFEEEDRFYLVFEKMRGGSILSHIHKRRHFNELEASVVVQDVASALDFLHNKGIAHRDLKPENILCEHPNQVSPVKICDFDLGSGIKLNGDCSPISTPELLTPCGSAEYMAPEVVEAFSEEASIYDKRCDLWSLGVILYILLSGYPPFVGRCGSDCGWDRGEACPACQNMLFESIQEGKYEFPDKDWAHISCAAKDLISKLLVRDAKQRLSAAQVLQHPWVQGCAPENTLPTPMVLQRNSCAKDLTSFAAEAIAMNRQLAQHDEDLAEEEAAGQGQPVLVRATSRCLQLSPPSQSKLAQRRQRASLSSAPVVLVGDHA
Sequence of ROCK1 (Q13464 whole entry): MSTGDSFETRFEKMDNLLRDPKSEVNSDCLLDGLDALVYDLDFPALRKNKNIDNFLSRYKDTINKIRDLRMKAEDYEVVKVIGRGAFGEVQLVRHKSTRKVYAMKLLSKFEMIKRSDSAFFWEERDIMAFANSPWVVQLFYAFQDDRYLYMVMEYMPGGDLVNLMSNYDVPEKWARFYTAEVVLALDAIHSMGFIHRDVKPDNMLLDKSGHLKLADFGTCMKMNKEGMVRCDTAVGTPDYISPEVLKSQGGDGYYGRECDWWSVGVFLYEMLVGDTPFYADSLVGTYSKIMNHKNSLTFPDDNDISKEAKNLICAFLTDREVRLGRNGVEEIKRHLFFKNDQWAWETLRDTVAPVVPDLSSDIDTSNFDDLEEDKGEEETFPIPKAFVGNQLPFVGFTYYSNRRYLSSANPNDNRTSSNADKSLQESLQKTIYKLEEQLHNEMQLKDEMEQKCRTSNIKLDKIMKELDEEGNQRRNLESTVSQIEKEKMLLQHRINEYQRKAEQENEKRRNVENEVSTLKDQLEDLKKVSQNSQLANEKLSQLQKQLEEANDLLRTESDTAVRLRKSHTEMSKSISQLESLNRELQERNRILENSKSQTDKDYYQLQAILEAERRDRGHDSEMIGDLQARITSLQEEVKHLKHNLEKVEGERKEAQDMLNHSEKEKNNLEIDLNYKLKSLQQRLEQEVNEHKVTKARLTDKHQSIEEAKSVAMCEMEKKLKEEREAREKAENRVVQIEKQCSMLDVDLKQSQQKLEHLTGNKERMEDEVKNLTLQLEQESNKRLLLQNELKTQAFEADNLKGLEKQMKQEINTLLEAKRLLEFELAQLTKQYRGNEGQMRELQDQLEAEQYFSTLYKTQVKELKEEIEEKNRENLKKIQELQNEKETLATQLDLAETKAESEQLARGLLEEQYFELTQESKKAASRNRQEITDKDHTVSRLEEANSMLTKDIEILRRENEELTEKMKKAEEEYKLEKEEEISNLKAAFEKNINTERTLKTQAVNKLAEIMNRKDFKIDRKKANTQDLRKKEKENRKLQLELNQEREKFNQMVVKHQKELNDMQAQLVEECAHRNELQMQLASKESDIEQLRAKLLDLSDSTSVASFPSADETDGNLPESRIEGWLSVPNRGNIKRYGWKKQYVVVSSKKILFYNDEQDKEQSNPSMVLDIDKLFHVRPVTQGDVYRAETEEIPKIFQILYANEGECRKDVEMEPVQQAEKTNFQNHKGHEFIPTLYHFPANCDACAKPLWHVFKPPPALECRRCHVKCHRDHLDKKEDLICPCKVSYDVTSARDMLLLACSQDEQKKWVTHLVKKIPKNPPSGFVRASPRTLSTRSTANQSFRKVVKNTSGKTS
Sequence of MSSK1 (Q9UPE1 whole entry): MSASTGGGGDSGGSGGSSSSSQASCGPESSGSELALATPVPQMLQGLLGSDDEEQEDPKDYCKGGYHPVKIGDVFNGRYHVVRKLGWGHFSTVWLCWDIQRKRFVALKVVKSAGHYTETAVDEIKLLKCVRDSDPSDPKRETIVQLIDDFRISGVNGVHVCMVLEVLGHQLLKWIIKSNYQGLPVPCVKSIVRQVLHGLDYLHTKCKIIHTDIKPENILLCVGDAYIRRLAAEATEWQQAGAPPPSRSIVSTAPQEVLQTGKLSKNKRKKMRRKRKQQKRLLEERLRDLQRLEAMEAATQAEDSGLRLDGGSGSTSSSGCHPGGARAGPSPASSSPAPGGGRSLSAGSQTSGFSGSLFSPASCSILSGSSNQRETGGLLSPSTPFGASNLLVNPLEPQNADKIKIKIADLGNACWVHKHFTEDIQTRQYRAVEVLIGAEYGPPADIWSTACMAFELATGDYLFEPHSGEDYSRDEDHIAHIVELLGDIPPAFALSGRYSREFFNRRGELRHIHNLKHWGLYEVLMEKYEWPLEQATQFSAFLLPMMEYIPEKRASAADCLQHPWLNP

Consider `COc1cc(-c2cc(-c3ccc(N4CCNCC4)cc3)cnc2C)cc(OC)c1OC` [Compound 10, 1-(4-(6-methyl-5-(3,4,5-trimethoxyphenyl)pyridin-3-yl)phenyl)piperazine], for which the inhibition at 0.1 µM stood at 2% on MSSK1; 5% on HIPK4; 1% on ROCK1; 3% on PDK1; 3% at MST1; 3% at PASK. Moreover, the inhibition at 0.1 µM was -1% at MET, 6% on MNK2 and 1% on CAMK1δ. Besides, the inhibition at 1 µM on MSSK1 turned out to be 2%; on HIPK4, 8%; on ROCK1, 0%; at PDK1, 6%; on MST1, 3%; at PASK it was 4%. The inhibition at 1 µM stood at 2% at MET, 6% on MNK2 and 2% on CAMK1δ.
On to `COc1cc(-c2cc(-c3ccc(N4CCNCC4)cc3)cnc2N)cc(OC)c1OC` [Compound 15, 5-(4-(piperazin-1-yl)phenyl)-3-(3,4,5-trimethoxyphenyl)pyridin-2-amine], for which the inhibition at 0.1 µM at MSSK1 was -2%; on HIPK4, 1%; at ROCK1 it was 0%; at PDK1 it was 3%; at MST1 it was 3%; at PASK, 2%. Further, the inhibition at 0.1 µM on MET stood at 7%; at MNK2, 1%; on CAMK1δ, 0%. Further, the inhibition at 1 µM at MSSK1 came to 0%; at HIPK4 it was 2%; at ROCK1, 0%; on PDK1 it was 3%; on MST1, 10%; at PASK, 1%. Moreover, the inhibition at 1 µM at MET is 21%; on MNK2 it was 7%; at CAMK1δ it was -1%.

The values are drawn from patent US20170190705A1, “Compositions and Methods for Inhibiting BMP” (THE BRIGHAM AND WOMAN'S HOSPITAL, INC., priority 2014, published 2017).
